Experimental data as given in ChEMBL document CHEMBL1139813, “Synthesis and biological evaluation of amino-pyridines as androgen receptor antagonists for stimulating hair growth and reducing sebum production” (Bioorg Med Chem Lett, 2007).
Active and inactive are the calls of the source. No cut-off for these calls is given here.

Columns and labels:
Androgen receptor [1] = biological target: T1, Androgen receptor (Homo sapiens, UniProt P10275); assay: biochemical
T1 sequence (P10275 whole entry): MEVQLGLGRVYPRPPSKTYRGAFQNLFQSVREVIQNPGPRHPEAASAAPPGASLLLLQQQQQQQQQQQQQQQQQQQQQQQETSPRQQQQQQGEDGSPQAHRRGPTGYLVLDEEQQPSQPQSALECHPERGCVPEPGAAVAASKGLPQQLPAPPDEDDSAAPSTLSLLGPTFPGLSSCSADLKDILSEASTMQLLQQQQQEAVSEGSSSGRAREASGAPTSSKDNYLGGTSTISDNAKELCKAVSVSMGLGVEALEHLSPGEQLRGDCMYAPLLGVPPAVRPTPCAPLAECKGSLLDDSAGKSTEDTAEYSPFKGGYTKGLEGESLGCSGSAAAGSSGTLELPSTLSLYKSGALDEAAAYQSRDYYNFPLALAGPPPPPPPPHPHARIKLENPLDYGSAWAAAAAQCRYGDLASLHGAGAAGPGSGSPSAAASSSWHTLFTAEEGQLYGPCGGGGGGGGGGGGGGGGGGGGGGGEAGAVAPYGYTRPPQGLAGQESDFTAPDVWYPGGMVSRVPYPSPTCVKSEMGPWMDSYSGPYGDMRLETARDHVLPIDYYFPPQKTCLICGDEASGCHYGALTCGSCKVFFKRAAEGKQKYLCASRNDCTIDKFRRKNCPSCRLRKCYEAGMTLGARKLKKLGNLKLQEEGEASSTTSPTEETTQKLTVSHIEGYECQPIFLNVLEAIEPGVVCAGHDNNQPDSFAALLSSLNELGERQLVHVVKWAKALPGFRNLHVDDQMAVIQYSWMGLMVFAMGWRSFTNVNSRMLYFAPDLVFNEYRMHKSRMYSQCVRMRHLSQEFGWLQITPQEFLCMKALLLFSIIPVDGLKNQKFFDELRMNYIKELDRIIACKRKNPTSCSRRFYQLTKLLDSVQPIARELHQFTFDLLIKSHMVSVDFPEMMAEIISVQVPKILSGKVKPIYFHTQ
Description: Displacement of [3H]dihydrotestosterone from human androgen receptor expressed in Sf9 cells

Androgen receptor [2] = biological target: T1, Androgen receptor
Description: Antagonist activity at human androgen receptor expressed in MDA-MB-453 cells

[3] = Clearance in Beagle dog plasma at 0.5 mg/kg, iv; format: ADME, organism-based, Canis lupus familiaris; design: dose 0.5 mg/kg, route intravenous
Mus musculus = assay: Stimulation of hair growth in C3H/HeN mouse at 3% concentration administered for 5 days, bid per week for 4 weeks; format: functional, organism-based
Syrian golden hamster = assay: Reduction in sebum production in syrian hamster ear model at 3% concentration administered for 5 days, bid per week for 2 weeks; format: functional, Mesocricetus auratus; design: scale not given: the % may be the effect or the level left

| Structure (SMILES) | IC50 (Androgen receptor [1]) [nM] | IC50 (Androgen receptor [2]) [nM] | clearance [3] [mL/min/kg] | Activity (Mus musculus) | Activity (Syrian golden hamster) [%] |
| --- | --- | --- | --- | --- | --- |
| CCC(C)N(C)c1cc(C(F)(F)F)c(C#N)cn1 (stereo not drawn) | 7 | > 1000 |  |  |  |
| CC1CCN(c2cc(C(F)(F)F)c(C#N)cn2)CC1 | 73 | 136 |  |  |  |
| CC(c1ccccc1)N(C)c1cc(C(F)(F)F)c(C#N)cn1 (stereo not drawn) |  | 229 |  |  |  |
| C[C@H](c1ccccc1)N(C)c1cc(C(F)(F)F)c(C#N)cn1 |  | 45 | 40 | Active | 83 |
| CC1(C)C(=O)N(c2ccc(C#N)c(C(F)(F)F)c2)C(=O)N1CCCCO [RU-58841] |  |  |  |  | 92 |
| C[C@@H](c1ccccc1)N(C)c1cc(C(F)(F)F)c(C#N)cn1 | 1700 |  |  |  |  |
| N#Cc1cnc(N2CCC3CCCCC3C2)cc1C(F)(F)F (stereo not drawn) | 169 | 260 |  |  |  |
| N#Cc1cnc(N2CCCCC2)cc1C(F)(F)F | 209 | 422 |  |  |  |
| CCCN(CCC)c1cc(C(F)(F)F)c(C#N)cn1 | 78 | > 1000 |  |  |  |
| C[C@@H](Nc1cc(C(F)(F)F)c(C#N)cn1)c1ccccc1 | 4930 |  |  |  |  |
